Experimental data taken from patent publication US11332468B2, “Azaindole derivatives as Rho-kinase inhibitors” (CHIESI FARMACEUTICI S.p.A., priority 2017, dated 2022).

Experiments:
[1] = target: Rho kinase 1 (ROCK1) (Homo sapiens, UniProt Q13464); assay: In vitro Rho kinase inhibitory activity assay (ADP-Glo), ROCK1; assay type: biochemical; conditions: Ki by Cheng-Prusoff from IC50; 10 μM ATP; range of activity
Experimental: (§1) The effectiveness of compounds of the invention to inhibit Rho kinase activity can be determined in a […] assay containing 40 mM Tris pH7.5, 20 mM MgC2 0.1 mg/ml BSA, 50 μM DTT and 2.5 μM peptide substrate (Myelin Basic Protein) using an ADP-Glo kit (Promega). Compounds were dissolved in DMSO such that the final concentration of DMSO was 1% in the assay. All reactions/incubations are performed at 25° C. Compound (2 ul) and either Rho kinase 1 or 2 (4 μl) were mixed and incubated for 30 mins. Reactions were initiated by addition of ATP (4 μl) such that the final concentration of ATP in the assay was 10 μM. After a 1 hour incubation 10 μl of ADP-Glo Reagent was added and after a further 45 minute incubation 20 ul of Kinase Detection Buffer was added and the mixture incubated for a further 30 minutes. The luminescent signal was measured on a luminometer. […] Compounds were tested in dose-response format and the inhibition of kinase activity was calculated at each concentration of compound. To determine the IC50 (concentration of compound required to inhibit 50% of the enzyme activity) data were fit to a plot of % inhibition vs Log10 compound concentration using a sigmoidal fit with a variable slope and fixing the maximum to 100% and the minimum to 0%. To determine the Ki values the Cheng-Prusoff equation was utilized (Ki=IC50/(1+[S]/Km)

[2] = target: Rho kinase 2 (ROCK2) (Homo sapiens, UniProt O75116); assay: In vitro Rho kinase inhibitory activity assay (ADP-Glo), ROCK2; assay type: biochemical; conditions: Ki by Cheng-Prusoff from IC50; 10 μM ATP; range of activity
Experimental: as §1

Rho kinase 1 (ROCK1), sequence (Q13464 whole entry): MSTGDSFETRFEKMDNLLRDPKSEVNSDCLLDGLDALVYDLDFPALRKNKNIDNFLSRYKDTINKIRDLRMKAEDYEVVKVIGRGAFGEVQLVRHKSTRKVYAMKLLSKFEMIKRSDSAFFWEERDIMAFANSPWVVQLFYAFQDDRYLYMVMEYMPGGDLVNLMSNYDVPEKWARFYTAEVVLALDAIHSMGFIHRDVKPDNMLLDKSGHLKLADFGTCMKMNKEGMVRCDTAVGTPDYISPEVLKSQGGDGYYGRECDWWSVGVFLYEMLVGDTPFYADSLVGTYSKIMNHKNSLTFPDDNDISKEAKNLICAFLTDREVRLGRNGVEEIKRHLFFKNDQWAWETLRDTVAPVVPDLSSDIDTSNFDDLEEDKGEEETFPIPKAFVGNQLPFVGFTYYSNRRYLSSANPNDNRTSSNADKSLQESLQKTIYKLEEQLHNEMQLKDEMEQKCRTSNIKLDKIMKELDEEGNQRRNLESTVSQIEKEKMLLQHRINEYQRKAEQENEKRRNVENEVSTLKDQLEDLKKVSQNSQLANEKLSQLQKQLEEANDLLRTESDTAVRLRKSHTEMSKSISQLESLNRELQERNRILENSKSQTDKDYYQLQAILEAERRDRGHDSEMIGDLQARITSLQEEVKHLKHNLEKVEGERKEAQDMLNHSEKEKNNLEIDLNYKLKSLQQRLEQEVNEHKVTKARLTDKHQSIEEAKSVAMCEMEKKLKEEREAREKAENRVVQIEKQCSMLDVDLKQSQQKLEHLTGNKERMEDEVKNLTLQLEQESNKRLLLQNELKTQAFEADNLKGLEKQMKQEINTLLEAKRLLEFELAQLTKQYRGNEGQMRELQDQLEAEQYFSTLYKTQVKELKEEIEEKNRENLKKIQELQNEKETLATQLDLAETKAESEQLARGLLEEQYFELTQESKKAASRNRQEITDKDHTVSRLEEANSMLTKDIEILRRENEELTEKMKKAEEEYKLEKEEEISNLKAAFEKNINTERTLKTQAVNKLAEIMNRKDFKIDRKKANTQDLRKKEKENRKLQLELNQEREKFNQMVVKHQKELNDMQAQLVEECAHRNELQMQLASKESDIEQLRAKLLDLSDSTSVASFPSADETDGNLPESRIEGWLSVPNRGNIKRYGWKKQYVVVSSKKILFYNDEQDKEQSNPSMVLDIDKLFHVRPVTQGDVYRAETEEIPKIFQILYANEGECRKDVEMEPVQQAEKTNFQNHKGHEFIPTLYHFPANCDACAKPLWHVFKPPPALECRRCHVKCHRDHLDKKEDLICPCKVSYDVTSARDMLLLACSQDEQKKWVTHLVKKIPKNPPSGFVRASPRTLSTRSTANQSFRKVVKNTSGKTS
Rho kinase 2 (ROCK2), sequence (O75116 whole entry): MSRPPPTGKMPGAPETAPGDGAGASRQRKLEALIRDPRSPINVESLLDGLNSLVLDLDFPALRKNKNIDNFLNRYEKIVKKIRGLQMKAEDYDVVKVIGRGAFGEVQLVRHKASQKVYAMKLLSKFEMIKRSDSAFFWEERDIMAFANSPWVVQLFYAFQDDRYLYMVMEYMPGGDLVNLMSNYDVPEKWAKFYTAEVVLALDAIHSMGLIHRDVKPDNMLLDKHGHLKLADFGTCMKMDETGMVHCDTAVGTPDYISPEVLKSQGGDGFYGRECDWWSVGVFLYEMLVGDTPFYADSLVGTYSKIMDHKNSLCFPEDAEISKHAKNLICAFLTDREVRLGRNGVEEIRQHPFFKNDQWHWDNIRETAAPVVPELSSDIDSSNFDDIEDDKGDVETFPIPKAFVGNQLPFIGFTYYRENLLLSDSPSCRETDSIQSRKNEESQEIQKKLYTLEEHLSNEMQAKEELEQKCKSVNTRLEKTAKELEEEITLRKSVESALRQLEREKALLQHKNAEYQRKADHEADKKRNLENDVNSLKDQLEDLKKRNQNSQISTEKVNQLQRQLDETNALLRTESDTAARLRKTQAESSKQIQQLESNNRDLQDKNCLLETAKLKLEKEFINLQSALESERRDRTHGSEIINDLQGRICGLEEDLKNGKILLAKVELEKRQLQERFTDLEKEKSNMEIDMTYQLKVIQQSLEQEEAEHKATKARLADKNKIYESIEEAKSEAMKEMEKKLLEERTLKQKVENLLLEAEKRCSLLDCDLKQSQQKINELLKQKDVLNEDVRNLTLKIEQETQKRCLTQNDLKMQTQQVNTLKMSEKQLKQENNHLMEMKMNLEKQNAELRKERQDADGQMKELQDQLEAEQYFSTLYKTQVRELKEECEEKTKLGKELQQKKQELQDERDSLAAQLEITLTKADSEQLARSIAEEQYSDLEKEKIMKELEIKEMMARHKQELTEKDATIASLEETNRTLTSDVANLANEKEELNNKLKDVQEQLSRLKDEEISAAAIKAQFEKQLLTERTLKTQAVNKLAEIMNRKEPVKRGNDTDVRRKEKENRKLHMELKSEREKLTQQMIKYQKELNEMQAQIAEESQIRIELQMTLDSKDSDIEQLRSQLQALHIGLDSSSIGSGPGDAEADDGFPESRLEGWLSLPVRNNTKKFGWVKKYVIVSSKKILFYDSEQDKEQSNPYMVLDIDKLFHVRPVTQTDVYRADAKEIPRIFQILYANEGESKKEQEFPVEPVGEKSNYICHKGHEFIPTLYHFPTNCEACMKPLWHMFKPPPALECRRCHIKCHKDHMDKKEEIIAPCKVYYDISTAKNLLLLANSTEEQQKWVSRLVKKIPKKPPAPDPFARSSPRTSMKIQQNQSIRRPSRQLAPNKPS

For `Cc1c[nH]c2nccc(Oc3ccc(C(N)CO)cc3)c12` (stereo not shown) [Example 38, 2-amino-2-(4-((3-methyl-1H-pyrrolo[2,3-b]pyridin-4-yl)oxy)phenyl)ethanol], the Ki [1] was 5 to 50 nM and the Ki [2] was < 5 nM.
With `Cc1c[nH]c2nccc(Oc3ccc4c(c3)CN[C@@H](CO)C4)c12` [Example 39, (R)-(7-((3-Methyl-1H-pyrrolo[2,3-b]pyridin-4-yl)oxy)-1,2,3,4-tetrahydroisoquinolin-3-yl)methanol] the Ki [1] was < 5 nM and the Ki [2] was < 5 nM.
